Patent US20220288057A1, “CONJOINT THERAPY FOR TREATING SEIZURE DISORDERS” (XENON PHARMACEUTICALS INC., priority 2021, published 2022)
Like-named read-outs stand apart in the source and are kept apart here.

Key:
[1] = Terminal plasma and brain concentrations in AC-MES studies (UHPLC-MS/MS); type: in vivo, mouse; settings: CF-1, mouse, in vivo; for Kp at 2 h: read-out: B/P Ratio
Procedure: Sample Collection and Preparation: Mice were anesthetized by isoflurane inhalation (according to SOP TECH-018) until they reached a surgical plane of anesthesia. Then a syringe (1 mL syringe with a 22 gauge needle) was inserted under the sternum into the heart (according to SOP TECH-031). Approximately 0.5 mL of blood was collected, deposited into a K2EDTA tube, and stored on ice. Animals were then euthanized by cervical dislocation. Brains were removed, placed into a pre-weighed vial, and snap frozen on dry ice. At the end of the sample collection, blood was centrifuged at 4000 rpm for 10 minutes at 4° C., and the plasma pipetted into a labeled tube. All samples were stored in a −80° C. freezer until the time of bioanalysis.
Plasma Samples: Extraction of plasma samples was carried out by protein precipitation using acetonitrile. Diluted plasma samples (50 μL) were mixed with 50 μL of internal standard (IS) solution in 1:1 acetonitrile:water (v:v) followed by addition of 200 μL of acetonitrile. Samples were vortexed for 30 seconds, centrifuged at 13,000 rpm for 20 minutes, decanted into a 96-well plate and further centrifuged at 4000 rpm for 20 minutes. The samples were analyzed by ultra-high performance liquid chromatography electrospray ionization tandem mass spectrometry (UHPLC-ESI-MS/MS) as described in the bioanalysis procedure below.
Brain Samples: Prior to extraction, pre-weighed whole brains were homogenized in 1:1 acetonitrile:water (v:v) (2 mL per mouse brain) using an IKA T18 Ultra-Turrax Homogenizer at the setting of 4 for approximately 1 minute. The homogenate was centrifuged at 13,000 rpm for 20 minutes and 50 μL of the supernatant were treated exactly as described in above for plasma samples.
Bioanalysis Procedures: All samples, including plasma and brain homogenate extracts (including calibration standards and quality control (QC) samples prepared in K2EDTA mouse plasma), were extracted by protein precipitation. To each 50 μL aliquot of sample, 50 μL of IS solution (2500 ng/mL of Lacosamide in water:acetonitrile (1:1)) and 50 μL of 6% (v:v) phosphoric acid in water were added, then 200 μL acetonitrile was added. The samples in 1.7 mL tubes were vortex-mixed then centrifuged for 20 minutes at 13,000 rpm. Fifty microliters of the supernatant was mixed with 150 μL of water:acetonitrile (1:1) in a 96 well plate, which was centrifuged post-mixing for 20 minutes at 4000 rpm. The samples were then ready for UHPLC-MS/MS analysis.
Samples were analyzed for Compound A by a research-grade UHPLC-MS/MS method using the conditions listed below.
Samples were analyzed for Lacosamide by a research-grade UHPLC-MS/MS method using the conditions listed below.
At least three QC samples, one at each concentration, had to show back-calculated values within ±20% of their nominal concentrations for the whole sample batch to be valid.
(§1) The Blinding and Randomization, Clinical Observations, AC-MES Assay, Sample Collection and Preparation, Plasma and Brain Samples Analysis, and Bioanalysis Procedures in Example 4 were identical to those used in Example 2.
Sample concentration determination and Data Processing and Analysis in Example 4 was identical to Example 2.

[2] = tested on: CF-1 mouse; assay: Clinical observations / behavioral signs in AC-MES studies; type: in vivo; settings: 2 h
Procedure: Any qualitative changes from normal behavior were recorded.
Five oral (PO) doses of Compound A were each tested in the AC-MES model. Thirty minutes after administration of Compound A at 1 mg/kg (n=8), 3 mg/kg (n=8), 5 mg/kg (n=16), 7.5 mg/kg (n=7), and 10 mg/kg (n=17) via oral gavage to male CF-1 mice (body weights 28.2 to 43.8 g), the mice underwent a 60 Hz corneal electrical stimulus (0.2 seconds duration, 40 mA). This stimulus elicited a tonic hindlimb extension in all vehicle-dosed animals. […] An observational neurological assessment (qualitative test) was also conducted at the time of testing as a tolerability screen. Terminal plasma and brain samples were collected from all animals to obtain the levels of Compound A concentration, and to understand the relationship between efficacy and drug concentration.
as §1

COC[C@@H](NC(C)=O)C(=O)NCc1ccccc1 [Lacosamide, reference compound]
Kp at 2 h ([1]; 6 mg/kg, Study 2A, Lacosamide 6 mg/kg PO, 2 h): 0.54
concentration at 2 h ([1]; 6 mg/kg, Study 2A, Lacosamide 6 mg/kg PO, 2 h, read-out: Mean Brain): 4.85 µM
concentration at 2 h ([1]; 6 mg/kg, Study 2A, Lacosamide 6 mg/kg PO, 2 h, read-out: Mean Plasma): 9.07 µM
Kp at 2 h ([1]; 6 mg/kg, Study 2D, Lacosamide 6 mg/kg PO, 2 h): 1.15
concentration at 2 h ([1]; 6 mg/kg, Study 2D, Lacosamide 6 mg/kg PO, 2 h, read-out: Mean Brain): 7.95 µM
concentration at 2 h ([1]; 6 mg/kg, Study 2D, Lacosamide 6 mg/kg PO, 2 h, read-out: Mean Plasma): 6.9 µM
Kp at 2 h ([1]; 8 mg/kg, Study 2A, Lacosamide 8 mg/kg PO, 2 h): 0.58
concentration at 2 h ([1]; 8 mg/kg, Study 2A, Lacosamide 8 mg/kg PO, 2 h, read-out: Mean Brain): 6.27 µM
concentration at 2 h ([1]; 8 mg/kg, Study 2A, Lacosamide 8 mg/kg PO, 2 h, read-out: Mean Plasma): 10.8 µM
Kp at 2 h ([1]; 10 mg/kg, Study 2B, Lacosamide 10 mg/kg PO, 2 h): 0.21
concentration at 2 h ([1]; 10 mg/kg, Study 2B, Lacosamide 10 mg/kg PO, 2 h, read-out: Mean Brain): 2.63 µM
concentration at 2 h ([1]; 10 mg/kg, Study 2B, Lacosamide 10 mg/kg PO, 2 h, read-out: Mean Plasma): 12.6 µM
Kp at 2 h ([1]; 10 mg/kg, Study 2C, Lacosamide 10 mg/kg PO, 2 h, alone): 0.28
concentration at 2 h ([1]; 10 mg/kg, Study 2C, Lacosamide 10 mg/kg PO, 2 h, alone, read-out: Mean Brain): 4.84 µM
concentration at 2 h ([1]; 10 mg/kg, Study 2C, Lacosamide 10 mg/kg PO, 2 h, alone, read-out: Mean Plasma): 17.1 µM
Kp at 2 h ([1]; 20 mg/kg, Study 2D, Lacosamide 20 mg/kg PO, 2 h): 1.12
concentration at 2 h ([1]; 20 mg/kg, Study 2D, Lacosamide 20 mg/kg PO, 2 h, read-out: Mean Brain): 26.8 µM
concentration at 2 h ([1]; 20 mg/kg, Study 2D, Lacosamide 20 mg/kg PO, 2 h, read-out: Mean Plasma): 23.9 µM
Kp at 2 h ([1]; Study 2C, analyte Lacosamide, 10 mg/kg PO 2 h + Compound A 3 mg/kg PO 0.5 h): 0.29
concentration at 2 h ([1]; Study 2C, analyte Lacosamide, 10 mg/kg PO 2 h + Compound A 3 mg/kg PO 0.5 h, read-out: Mean Brain): 4.52 µM
concentration at 2 h ([1]; Study 2C, analyte Lacosamide, 10 mg/kg PO 2 h + Compound A 3 mg/kg PO 0.5 h, read-out: Mean Plasma): 15.5 µM
Fraction with Behavioral Signs ([2]; Study 2A, Lacosamide 6 mg/kg PO): 0/8
Fraction with Behavioral Signs ([2]; Study 2A, Lacosamide 8 mg/kg PO): 0/8
Fraction with Behavioral Signs ([2]; Study 2B, Lacosamide 10 mg/kg PO): 0/8
Fraction with Behavioral Signs ([2]; Study 2C, Lacosamide 10 mg/kg PO, alone): 0/8
Fraction with Behavioral Signs ([2]; Study 2D, Lacosamide 6 mg/kg PO): 0/8
Fraction with Behavioral Signs ([2]; Study 2D, Lacosamide 20 mg/kg PO): 0/8
